{
  "source": "BigSolDB 2.1",
  "data": [
    {"smiles": "CN1C(C(=O)Nc2ccccn2)=C(O)c2sccc2S1(=O)=O", "values": [
      {"measurement": "solubility (mole fraction)", "setting": "in PEG-400, 298.15 K", "result": 0.00976},
      {"measurement": "solubility (mole fraction)", "setting": "in PEG-400, 303.15 K", "result": 0.0131},
      {"measurement": "solubility (mole fraction)", "setting": "in PEG-400, 308.15 K", "result": 0.0175},
      {"measurement": "solubility (mole fraction)", "setting": "in PEG-400, 313.15 K", "result": 0.0227},
      {"measurement": "solubility (mole fraction)", "setting": "in PEG-400, 323.15 K", "result": 0.0345},
      {"measurement": "solubility (mole fraction)", "setting": "in ethanol, 298.15 K", "result": "3.71e-05"},
      {"measurement": "solubility (mole fraction)", "setting": "in ethanol, 303.15 K", "result": "4.11e-05"},
      {"measurement": "solubility (mole fraction)", "setting": "in ethanol, 308.15 K", "result": "4.56e-05"},
      {"measurement": "solubility (mole fraction)", "setting": "in ethanol, 313.15 K", "result": "4.98e-05"},
      {"measurement": "solubility (mole fraction)", "setting": "in ethanol, 323.15 K", "result": "5.84e-05"},
      {"measurement": "solubility (mole fraction)", "setting": "in ethyl acetate, 298.15 K", "result": 0.000679},
      {"measurement": "solubility (mole fraction)", "setting": "in ethyl acetate, 303.15 K", "result": 0.000746},
      {"measurement": "solubility (mole fraction)", "setting": "in ethyl acetate, 308.15 K", "result": 0.000825},
      {"measurement": "solubility (mole fraction)", "setting": "in ethyl acetate, 313.15 K", "result": 0.000908},
      {"measurement": "solubility (mole fraction)", "setting": "in ethyl acetate, 323.15 K", "result": 0.00106},
      {"measurement": "solubility (mole fraction)", "setting": "in ethylene glycol, 298.15 K", "result": 0.000213},
      {"measurement": "solubility (mole fraction)", "setting": "in ethylene glycol, 303.15 K", "result": 0.000246},
      {"measurement": "solubility (mole fraction)", "setting": "in ethylene glycol, 308.15 K", "result": 0.000283},
      {"measurement": "solubility (mole fraction)", "setting": "in ethylene glycol, 313.15 K", "result": 0.000324},
      {"measurement": "solubility (mole fraction)", "setting": "in ethylene glycol, 323.15 K", "result": 0.000441},
      {"measurement": "solubility (mole fraction)", "setting": "in isopropanol, 298.15 K", "result": "6.27e-05"},
      {"measurement": "solubility (mole fraction)", "setting": "in isopropanol, 303.15 K", "result": "8.91e-05"},
      {"measurement": "solubility (mole fraction)", "setting": "in isopropanol, 308.15 K", "result": 0.000125},
      {"measurement": "solubility (mole fraction)", "setting": "in isopropanol, 313.15 K", "result": 0.000164},
      {"measurement": "solubility (mole fraction)", "setting": "in isopropanol, 323.15 K", "result": 0.000267},
      {"measurement": "solubility (mole fraction)", "setting": "in n-butanol, 298.15 K", "result": "8.13e-05"},
      {"measurement": "solubility (mole fraction)", "setting": "in n-butanol, 303.15 K", "result": 0.000105},
      {"measurement": "solubility (mole fraction)", "setting": "in n-butanol, 308.15 K", "result": 0.000134},
      {"measurement": "solubility (mole fraction)", "setting": "in n-butanol, 313.15 K", "result": 0.000163},
      {"measurement": "solubility (mole fraction)", "setting": "in n-butanol, 323.15 K", "result": 0.000239},
      {"measurement": "solubility (mole fraction)", "setting": "in propylene glycol, 298.15 K", "result": 0.000194},
      {"measurement": "solubility (mole fraction)", "setting": "in propylene glycol, 303.15 K", "result": 0.000235},
      {"measurement": "solubility (mole fraction)", "setting": "in propylene glycol, 308.15 K", "result": 0.000275},
      {"measurement": "solubility (mole fraction)", "setting": "in propylene glycol, 313.15 K", "result": 0.000327},
      {"measurement": "solubility (mole fraction)", "setting": "in propylene glycol, 323.15 K", "result": 0.000437},
      {"measurement": "solubility (mole fraction)", "setting": "in sec-butanol, 298.15 K", "result": "6.15e-05"},
      {"measurement": "solubility (mole fraction)", "setting": "in sec-butanol, 303.15 K", "result": "8.79e-05"},
      {"measurement": "solubility (mole fraction)", "setting": "in sec-butanol, 308.15 K", "result": 0.000123},
      {"measurement": "solubility (mole fraction)", "setting": "in sec-butanol, 313.15 K", "result": 0.000163},
      {"measurement": "solubility (mole fraction)", "setting": "in sec-butanol, 323.15 K", "result": 0.000272},
      {"measurement": "solubility (mole fraction)", "setting": "in transcutol, 298.15 K", "result": 0.00183},
      {"measurement": "solubility (mole fraction)", "setting": "in transcutol, 303.15 K", "result": 0.00202},
      {"measurement": "solubility (mole fraction)", "setting": "in transcutol, 308.15 K", "result": 0.00222},
      {"measurement": "solubility (mole fraction)", "setting": "in transcutol, 313.15 K", "result": 0.00241},
      {"measurement": "solubility (mole fraction)", "setting": "in transcutol, 323.15 K", "result": 0.00286},
      {"measurement": "solubility (mole fraction)", "setting": "in water, 298.15 K", "result": "4.11e-06"},
      {"measurement": "solubility (mole fraction)", "setting": "in water, 303.15 K", "result": "5.07e-06"},
      {"measurement": "solubility (mole fraction)", "setting": "in water, 308.15 K", "result": "6.46e-06"},
      {"measurement": "solubility (mole fraction)", "setting": "in water, 313.15 K", "result": "8.33e-06"},
      {"measurement": "solubility (mole fraction)", "setting": "in water, 323.15 K", "result": "1.38e-05"}
    ]}
  ]
}
